The values that follow are results of earlier work, collected in patent US10894006B2, “Nanoparticles for the encapsulation of compounds, preparation thereof and use of same” (CENTRO NACIONAL DE TECNOLOGÍA Y SEGURIDAD ALIMENTARIA, …, priority 2010, dated 2021).

Each structure is given as a SMILES string. Read-outs that look alike come from different tables or passages of the source.

On to `Nc1nc2ncc(CNc3ccc(C(=O)N[C@@H](CCC(=O)O)C(=O)O)cc3)nc2c(=O)[nH]1` [Non-encap FA, folic acid], for which the solubility entry is given as “freely soluble” (in slightly alkaline aqueous solution) and “slightly soluble” (in water).
